Results taken from patent US20240262832A1, “SMALL MOLECULE MODULATORS OF GLUCOCEREBROSIDASE ACTIVITY AND USES THEREOF” (Vanqua Bio, Inc., priority 2021, published 2024).

These molecules were tested against T1, GCase (Homo sapiens, UniProt P04062) (assay: activation of GCase in a live cell PFB assay in HELA cells).
T1 construct: endogenous in cells; host or cells: HeLa cells
T1 sequence (P04062 40-536): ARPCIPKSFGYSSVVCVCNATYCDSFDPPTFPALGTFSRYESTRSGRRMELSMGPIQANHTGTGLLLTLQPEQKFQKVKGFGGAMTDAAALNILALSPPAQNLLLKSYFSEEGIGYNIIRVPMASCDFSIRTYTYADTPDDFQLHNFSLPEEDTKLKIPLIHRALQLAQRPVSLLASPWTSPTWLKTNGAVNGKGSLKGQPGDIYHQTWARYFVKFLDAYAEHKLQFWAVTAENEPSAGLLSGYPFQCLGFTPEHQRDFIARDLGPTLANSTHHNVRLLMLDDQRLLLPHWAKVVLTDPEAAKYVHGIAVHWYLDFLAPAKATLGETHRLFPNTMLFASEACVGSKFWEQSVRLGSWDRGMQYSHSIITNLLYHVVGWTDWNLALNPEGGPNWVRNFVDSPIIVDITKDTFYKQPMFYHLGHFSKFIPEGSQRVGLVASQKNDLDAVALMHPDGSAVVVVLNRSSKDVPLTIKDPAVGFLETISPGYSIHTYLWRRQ
Format: cell-based

Row | SMILES | EC50
1 | COc1ccc(OCC2CCN(c3nccc(N4CCCC(O)C4)n3)CC2)cc1 (stereo not drawn) [Compound 424] | < 10 µM
2 | COc1ccc(OCC2CCN(Cc3cc(C)no3)CC2)cc1 [Compound 425] | > 100 µM
3 | CCc1ncc(C(=O)N2CCC(COc3ccc4c(c3)CCC4)CC2)cn1 [Compound 426] | 10 to 50 µM
4 | COc1ccc(OCC2CCN(c3ncnc4cc[nH]c34)CC2)cc1 [Compound 427] | 10 to 50 µM
5 | CN1CCC(COc2cccc(-c3cnc4ccccc4n3)c2)CC1 [Compound 428] | 10 to 50 µM
6 | COc1ccc(OCC2CCN(c3nnc(N)s3)CC2)cc1 [Compound 429] | > 100 µM
7 | COc1ccc(OCC2CCN(c3nncc(C)c3C)CC2)cc1 [Compound 430] | 50 to 100 µM
8 | COc1ccc(OCC2CCN(c3cncc(N)n3)CC2)cc1 [Compound 431] | 50 to 100 µM
9 | COc1ccc(OCC2CCN(C(=O)NCCc3cn[nH]c3)CC2)cc1 [Compound 432] | 50 to 100 µM
10 | COc1ccc(OCC2CCN(C(=O)c3ccc(C#CC(C)(C)O)o3)CC2)cc1 [Compound 433] | 10 to 50 µM
11 | CCN1CCC(NC(=O)N2CCC(COc3ccc(OC)cc3)CC2)C1 (stereo not drawn) [Compound 434] | > 100 µM
12 | CSCc1ccc(C(=O)N2CCC(OCc3ccccc3)CC2)o1 [Compound 435] | > 100 µM
13 | CCc1noc(CNC(=O)N2CCC(COc3ccc(OC)cc3)CC2)n1 [Compound 436] | > 100 µM
14 | COc1ccc(OCC2CCN(c3cncc(C(=O)N4CCCC4)n3)CC2)cc1 [Compound 437] | 10 to 50 µM
15 | CCNC(=O)c1ccc(N2CCC(COc3ccc(OC)cc3)CC2)nc1 [Compound 438] | 10 to 50 µM
16 | COc1ccc(OCC2CCN(C(=O)Nc3cnn(C)c3C)CC2)cc1 [Compound 439] | 50 to 100 µM
17 | NCCn1cc(C(=O)N2CCC(COc3ccc4c(c3)CCC4)CC2)nn1 [Compound 440] | > 100 µM
18 | COc1ccc(OCC2CCN(c3nccnc3N(C)C)CC2)cc1 [Compound 441] | > 100 µM
19 | COc1ccc(OCC2CCN(C(=O)Nc3cccc(CN)c3)CC2)cc1 [Compound 442] | > 100 µM
20 | COc1ccc(OCC2CCN(C(=O)Nc3ccc(C#N)cc3F)CC2)cc1 [Compound 443] | 50 to 100 µM
21 | COc1ccc(OCC2CCN(Cc3cnc(C)[nH]3)CC2)cc1 [Compound 444] | > 100 µM

Row | SMILES | EC50
22 | COc1ccc(OCC2CCN(Cc3ccncc3C)CC2)cc1 [Compound 445] | > 100 µM
23 | COc1ccc(OCC2CCN(C(=O)c3cccc(NC(=O)C(C)C)c3)CC2)cc1 [Compound 446] | 10 to 50 µM
24 | COc1cccn(CC(=O)N2CCC(OCc3ccccc3)CC2)c1=O [Compound 447] | > 100 µM
25 | COc1ccc(OCC2CCN(Cc3ccc(CO)o3)CC2)cc1 [Compound 448] | 10 to 50 µM
26 | O=C(c1ccc(Cn2cccn2)o1)N1CCC(OCc2ccccc2)CC1 [Compound 449] | > 100 µM
27 | COc1ccc(OCC2CCN(Cc3ncc[nH]3)CC2)cc1 [Compound 450] | 10 to 50 µM
28 | Cc1nccn1CCCC(=O)N1CCC(OCc2ccccc2)CC1 [Compound 451] | > 100 µM
29 | COc1ccc(OCC2CCN(C(=O)c3cnc(O)cn3)CC2)cc1 [Compound 452] | > 100 µM
30 | COc1ccc(OCC2CCN(Cc3[nH]cnc3C)CC2)cc1 [Compound 453] | > 100 µM
31 | COc1ccc(OCC2CCN(CCCn3ccnc3C)CC2)cc1 [Compound 454] | > 100 µM
32 | CCn1ncnc1CN1CCC(COc2ccc(OC)cc2)CC1 [Compound 455] | 10 to 50 µM
33 | COc1ccc(OCC2CCN(Cc3c[nH]c(C#N)c3)CC2)cc1 [Compound 456] | < 10 µM
34 | COc1ccc(OCC2CCN(C(=O)c3ccc(CN4CCCC4)o3)CC2)cc1 [Compound 457] | > 100 µM
35 | COc1ccc(OCC2CCN(c3nc(N)nc(C)c3C)CC2)cc1 [Compound 458] | > 100 µM
36 | COc1ccc(OCC2CCN(C(=O)c3cc(C)oc3C)CC2)cc1 [Compound 459] | 10 to 50 µM
37 | CCc1nc(CNC(=O)N2CCC(COc3ccc(OC)cc3)CC2)no1 [Compound 460] | 50 to 100 µM
38 | COc1ccc(OCC2CCN(C(=O)c3cc(C(C)C)nc(N)n3)CC2)cc1 [Compound 461] | 10 to 50 µM
39 | COc1ccc(OCC2CCN(C(=O)c3cnc(N)nc3C)CC2)cc1 [Compound 462] | > 100 µM
40 | COc1ccc(OCC2CCN(C(=O)c3cnc[nH]3)CC2)cc1 [Compound 463] | 50 to 100 µM
41 | CCc1cc(N2CCC(COc3ccc(OC)cc3)CC2)ncn1 [Compound 464] | 10 to 50 µM
42 | CCCc1[nH]ncc1C(=O)N1CCC(OCc2ccccc2)CC1 [Compound 465] | 50 to 100 µM

Row | SMILES | EC50
43 | COc1ccc(OCC2CCN(C(=O)Cc3ccccn3)CC2)cc1 [Compound 466] | > 100 µM
44 | COc1ccc(OCC2CCN(CC(C)(C)N3CCOCC3)CC2)cc1 [Compound 467] | > 100 µM
45 | O=C(c1ccc(-c2nnc[nH]2)cc1)N1CCC(OCc2ccccc2)CC1 [Compound 468] | 50 to 100 µM
46 | C=CCn1ncc(CN2CCC(COc3ccc(OC)cc3)CC2)c1C [Compound 469] | > 100 µM
47 | CCc1nc(CN2CCC(COc3ccc(OC)cc3)CC2)no1 [Compound 470] | > 100 µM
48 | COc1ccc(OCC2CCN(Cc3noc(C4CCCO4)n3)CC2)cc1 (stereo not drawn) [Compound 471] | 50 to 100 µM
49 | COc1ccc(OCC2CCN(C(=O)CC3CCOC3)CC2)cc1 (stereo not drawn) [Compound 472] | 50 to 100 µM
50 | COc1ccc(OCC2CCN(Cc3nnc(C4CC(N)C4)n3C)CC2)cc1 (stereo not drawn) [Compound 473] | > 100 µM
51 | COc1ccc(OCC2CCN(C(=O)CN3CCCN(C)CC3)CC2)cc1 [Compound 474] | > 100 µM
52 | CCc1cnc(C)nc1N1CCC(COc2ccc(OC)cc2)CC1 [Compound 475] | 10 to 50 µM
53 | CCn1cc(-c2cccc(C(=O)N3CCC(OCc4ccccc4)CC3)c2)cn1 [Compound 476] | 50 to 100 µM
54 | COc1ccc(OCC2CCN(Cc3cscn3)CC2)cc1 [Compound 477] | < 10 µM
55 | CC(=O)c1ccc(OCC(=O)N2CCC(OCc3ccccc3)CC2)cc1 [Compound 478] | 50 to 100 µM
56 | COc1ccc(OCC2CCN(CC(=O)Nc3cn(C)nc3C)CC2)cc1 [Compound 479] | 10 to 50 µM
57 | COc1ccc(OCC2CCN(C(=O)NCCc3nccs3)CC2)cc1 [Compound 480] | > 100 µM
58 | COc1ccc(OCC2CCN(C(=O)c3c(C)cccc3OC)CC2)cc1 [Compound 481] | 10 to 50 µM
59 | COc1ccc(OCC2CCN(c3cc(C4CC(N)C4)ncn3)CC2)cc1 (stereo not drawn) [Compound 482] | > 100 µM
60 | COc1ccc(OCC2CCN(C(=O)CN3C(=O)CCC3C)CC2)cc1 (stereo not drawn) [Compound 483] | 50 to 100 µM
61 | COc1ccc(OCC2CCN(C(=O)Cn3cnnn3)CC2)cc1 [Compound 484] | > 100 µM
62 | Cc1ccc(-c2nc(N3CCC(CO)CC3)ncc2-c2ccc(CO)cc2)cc1 [Compound 485] | 10 to 50 µM
63 | COCCNc1nc2cc(C(=O)N3CCC(O)(CO)CC3)ccc2n1C [Compound 486] | 10 to 50 µM
